Test results: ChEMBL document CHEMBL1201862, “PubChem BioAssay data set” (2004)
Activity calls are given as the source filed them.

What was measured:
[1] = molecular target: T1, Apoptotic protease-activating factor 1 (Homo sapiens, UniProt O14727); assay: SAR analysis of small molecule Activators of Apaf-1 in a Fluorescent assay - set 2.; assay type: functional; details: read-out: EC50_Mean
T1 sequence (O14727 whole entry): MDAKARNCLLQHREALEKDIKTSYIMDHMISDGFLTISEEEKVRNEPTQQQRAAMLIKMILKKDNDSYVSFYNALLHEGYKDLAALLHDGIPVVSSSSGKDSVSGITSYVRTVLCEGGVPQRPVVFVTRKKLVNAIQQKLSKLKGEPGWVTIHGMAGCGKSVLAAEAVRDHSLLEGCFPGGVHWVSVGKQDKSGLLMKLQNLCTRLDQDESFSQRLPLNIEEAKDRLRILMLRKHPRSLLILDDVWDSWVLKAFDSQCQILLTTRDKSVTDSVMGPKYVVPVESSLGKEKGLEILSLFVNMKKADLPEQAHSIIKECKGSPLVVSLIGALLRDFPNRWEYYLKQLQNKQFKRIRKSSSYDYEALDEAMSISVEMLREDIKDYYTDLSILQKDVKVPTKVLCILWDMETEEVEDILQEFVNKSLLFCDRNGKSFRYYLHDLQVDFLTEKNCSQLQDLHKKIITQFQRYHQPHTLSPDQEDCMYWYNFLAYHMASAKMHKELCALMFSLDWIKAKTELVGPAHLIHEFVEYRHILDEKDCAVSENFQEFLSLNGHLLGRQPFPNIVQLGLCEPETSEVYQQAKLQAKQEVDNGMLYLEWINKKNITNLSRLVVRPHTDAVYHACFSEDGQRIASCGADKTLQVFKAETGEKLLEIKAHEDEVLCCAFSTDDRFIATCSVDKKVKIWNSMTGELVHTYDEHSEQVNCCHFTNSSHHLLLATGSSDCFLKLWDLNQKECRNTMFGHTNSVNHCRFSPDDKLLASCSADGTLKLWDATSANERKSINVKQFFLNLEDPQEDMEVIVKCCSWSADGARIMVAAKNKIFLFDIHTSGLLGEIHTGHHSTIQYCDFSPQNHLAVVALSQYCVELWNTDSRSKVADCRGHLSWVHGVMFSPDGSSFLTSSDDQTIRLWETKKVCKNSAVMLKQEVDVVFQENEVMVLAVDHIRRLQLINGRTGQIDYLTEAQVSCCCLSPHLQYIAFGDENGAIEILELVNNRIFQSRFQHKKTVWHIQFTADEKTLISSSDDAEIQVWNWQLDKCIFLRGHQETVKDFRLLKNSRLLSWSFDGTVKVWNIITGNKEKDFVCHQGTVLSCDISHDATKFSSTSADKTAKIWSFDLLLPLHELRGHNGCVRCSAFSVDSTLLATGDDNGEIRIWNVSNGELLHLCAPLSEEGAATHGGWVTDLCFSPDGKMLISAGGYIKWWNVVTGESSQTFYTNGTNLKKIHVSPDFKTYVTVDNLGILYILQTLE

[2] = SAR analysis of small molecule activators of Apaf-1 using a LZ-Caspase-9/Caspase-3 Fluorescent Selectivity assay - Set 2.; assay type: functional; details: read-out: EC50_Mean

EC50 [1]: > 100 µM (inactive)
EC50 [2]: > 100 µM (inactive)
Compound: COc1cc(OC)c(C2=NOC(C(=O)O)C2)cc1Cl (configuration not stated)
